Assay results taken from ChEMBL document CHEMBL3885861, “Open TG-GATES”.

Species on record: Rattus norvegicus
Assay: Open TG-GATES - Regimen: Single
Assay type: toxicity, organism-based, Sprague-Dawley
Set-up: regimen Single, gender Male, age 6 weeks
Details: in vivo, po, 150 mg/kg, route gavage, dose level High; for APTT / Bas / Eos / Fbg / Hb / Ht / Lym / MCHC / MCV / Mono / Neu / PT / Plat / RBC / Ret / WBC: tissue Blood; for KIDNEY_L / KIDNEY_R / KIDNEY_TOTAL: tissue Kidney; for LIVER: tissue Liver; for ALP / ALT / AST / BUN / CRE / Ca / Cl / DBIL / GLC / IP / K / LDH / Na / PL / RALB / TBIL / TC / TG / TP / gamma-GTP: tissue Plasma

## C1CCC(C(CC2CCCCN2)C2CCCCC2)CC1 (centres undefined) [PERHEXILINE]
3 h
  TERMINAL_BW: 215.1 g
  APTT: 21.8 s
  Bas: 0%
  Eos: 0.8%
  Fbg: 336.6 mg/dL
  Hb: 13.3 g/dL
  Ht: 40.3%
  Lym: 71.2%
  MCHC: 33.1%
  MCV: 65.5 fL
  Mono: 1.6%
  Neu: 24.8%
  PT: 16 s
  Plat: 129.8 x10_4/uL
  RBC: 616 x10_4/ul
  Ret: 7.7%
  WBC: 64 x10_2/uL
  KIDNEY_L: 0.9 g
  KIDNEY_R: 1 g
  KIDNEY_TOTAL: 1.9 g
  LIVER: 9.3 g
  ALP: 1714.6 IU/L
  ALT: 57.2 IU/L
  AST: 80 IU/L
  BUN: 11 mg/dL
  CRE: 0.1 mg/dL
  Ca: 10.6 mg/dL
  Cl: 104.8 meq/L
  DBIL: 0.002 mg/dL
  GLC: 173.6 mg/dL
  IP: 9.4 mg/dL
  K: 3.8 meq/L
  LDH: 215.2 IU/L
  Na: 140.2 meq/L
  PL: 133.2 mg/dL
  RALB: 3.2 g/dL
  TBIL: 0.016 mg/dL
  TC: 73.2 mg/dL
  TG: 46.8 mg/dL
  TP: 5.8 g/dL
  gamma-GTP: 0.8 IU/L
6 h
  TERMINAL_BW: 213.5 g
  APTT: 22.8 s
  Bas: 0%
  Eos: 1%
  Fbg: 336.8 mg/dL
  Hb: 13.1 g/dL
  Ht: 39.1%
  Lym: 68.8%
  MCHC: 33.5%
  MCV: 62.8 fL
  Mono: 1.8%
  Neu: 27.2%
  PT: 15.2 s
  Plat: 142.9 x10_4/uL
  RBC: 622.4 x10_4/ul
  Ret: 7.9%
  WBC: 59.6 x10_2/uL
  KIDNEY_L: 1 g
  KIDNEY_R: 1 g
  KIDNEY_TOTAL: 1.9 g
  LIVER: 9.1 g
  ALP: 1591 IU/L
  ALT: 51.8 IU/L
  AST: 75.8 IU/L
  BUN: 10.6 mg/dL
  CRE: 0.1 mg/dL
  Ca: 10.6 mg/dL
  Cl: 106 meq/L
  DBIL: 0.002 mg/dL
  GLC: 172.4 mg/dL
  IP: 9.2 mg/dL
  K: 4.2 meq/L
  LDH: 238.8 IU/L
  Na: 140.2 meq/L
  PL: 148.6 mg/dL
  RALB: 3.2 g/dL
  TBIL: 0.018 mg/dL
  TC: 75 mg/dL
  TG: 82 mg/dL
  TP: 5.7 g/dL
  gamma-GTP: 1 IU/L
9 h
  TERMINAL_BW: 220.6 g
  APTT: 21.1 s
  Bas: 0%
  Eos: 1%
  Fbg: 326.4 mg/dL
  Hb: 13.2 g/dL
  Ht: 39.7%
  Lym: 66.8%
  MCHC: 33.2%
  MCV: 63.9 fL
  Mono: 1.6%
  Neu: 30%
  PT: 15.5 s
  Plat: 128.9 x10_4/uL
  RBC: 622.8 x10_4/ul
  Ret: 7.7%
  WBC: 64.2 x10_2/uL
  KIDNEY_L: 1.1 g
  KIDNEY_R: 1.1 g
  KIDNEY_TOTAL: 2.1 g
  LIVER: 9.7 g
  ALP: 1539.6 IU/L
  ALT: 39 IU/L
  AST: 66.6 IU/L
  BUN: 11.4 mg/dL
  CRE: 0.1 mg/dL
  Ca: 10.9 mg/dL
  Cl: 105.2 meq/L
  DBIL: 0.004 mg/dL
  GLC: 171.2 mg/dL
  IP: 9.6 mg/dL
  K: 4 meq/L
  LDH: 217.8 IU/L
  Na: 138.8 meq/L
  PL: 121 mg/dL
  RALB: 3 g/dL
  TBIL: 0.014 mg/dL
  TC: 62 mg/dL
  TG: 48.2 mg/dL
  TP: 5.6 g/dL
  gamma-GTP: 1 IU/L
24 h
  TERMINAL_BW: 208.6 g
  APTT: 21.2 s
  Bas: 0%
  Eos: 1%
  Fbg: 327.6 mg/dL
  Hb: 13.6 g/dL
  Ht: 40.4%
  Lym: 82%
  MCHC: 33.6%
  MCV: 62.7 fL
  Mono: 1.2%
  Neu: 15.4%
  PT: 16.1 s
  Plat: 132.8 x10_4/uL
  RBC: 645.6 x10_4/ul
  Ret: 6%
  WBC: 65.9 x10_2/uL
  KIDNEY_L: 0.9 g
  KIDNEY_R: 1 g
  KIDNEY_TOTAL: 1.9 g
  LIVER: 9.4 g
  ALP: 1840.2 IU/L
  ALT: 50 IU/L
  AST: 71.6 IU/L
  BUN: 15.4 mg/dL
  CRE: 0.1 mg/dL
  Ca: 10.7 mg/dL
  Cl: 106.8 meq/L
  DBIL: 0 mg/dL
  GLC: 170.2 mg/dL
  IP: 7.9 mg/dL
  K: 4.2 meq/L
  LDH: 256.2 IU/L
  Na: 141.8 meq/L
  PL: 149 mg/dL
  RALB: 3.2 g/dL
  TBIL: 0.012 mg/dL
  TC: 79.6 mg/dL
  TG: 78 mg/dL
  TP: 5.8 g/dL
  gamma-GTP: 1 IU/L
